Laboratory results as given in ChEMBL document CHEMBL1147149, “Ecdysteroids from Serratula wolffii roots” (2007).

Test system: Acyrthosiphon pisum
Test: Toxicity against larvae of orally dosed Acyrthosiphon pisum Harris
Type: functional

Row | Structure (SMILES) | LC50 [ppm]
1 | C/C(=C\CCC(C)(C)O)[C@H]1CC[C@@]2(O)C3=CC(=O)[C@@H]4C[C@@H](O)[C@@H](O)C[C@]4(C)C3CC[C@]12C (stereo partly drawn) | >100
2 | C/C(=C\CCC(C)(C)O)[C@H]1CC[C@@]2(O)C3=CC(=O)[C@@H]4C[C@@H](O)[C@@H](O)[C@@H](O)[C@]4(C)C3CC[C@]12C (stereo partly drawn) | 48.5
3 | CC(C)(O)CC[C@@H](O)[C@](C)(O)[C@H]1CC[C@@]2(O)C3=CC(=O)[C@@H]4C[C@@H](O)[C@@H](O)C[C@]4(C)[C@H]3CC[C@]12C [20-HYDROXYECDYSONE] | 1.07
